Assays:
Assay in all cases: apparent sialyltransferase kinetics
His6-Pd2,6ST(16–497) = molecular target: T1, His6-Pd2,6ST(16–497) (Photobacterium damselae, UniProt O66375); format: biochemical; settings: read-out: His6-Pd2,6ST(16-497); acceptor; donor CMP-Neu5Ac; apparent value
T1 sequence (O66375 16-497): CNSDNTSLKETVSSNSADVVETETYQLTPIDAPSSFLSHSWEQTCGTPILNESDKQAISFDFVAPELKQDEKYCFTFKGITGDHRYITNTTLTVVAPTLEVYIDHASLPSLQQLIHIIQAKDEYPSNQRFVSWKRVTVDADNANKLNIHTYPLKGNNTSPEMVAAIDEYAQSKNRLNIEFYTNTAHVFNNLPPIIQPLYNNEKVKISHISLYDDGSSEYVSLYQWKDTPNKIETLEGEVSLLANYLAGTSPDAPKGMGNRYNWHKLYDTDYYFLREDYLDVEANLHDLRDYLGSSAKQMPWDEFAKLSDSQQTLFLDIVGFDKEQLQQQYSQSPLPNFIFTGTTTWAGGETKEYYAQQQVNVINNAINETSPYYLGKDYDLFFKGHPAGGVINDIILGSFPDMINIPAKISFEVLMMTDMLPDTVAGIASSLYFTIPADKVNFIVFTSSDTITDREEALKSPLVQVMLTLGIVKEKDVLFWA

Psp2,6ST(15–501)-His6 = Psp2,6ST(15–501)-His6 (Photobacterium sp. JT-ISH-224, UniProt A8QYL1); format: biochemical; settings: read-out: Psp2,6ST(15-501)-His6; acceptor; donor CMP-Neu5Ac; apparent value
[1] = substrate: Cc1cc(=O)oc2cc(O[C@@H]3O[C@H](CO)[C@@H](O[C@@H]4O[C@H](CO)[C@H](O)[C@H](O)[C@H]4O)[C@H](O)[C@H]3O)ccc12; format: biochemical, Photobacterium sp. JT-ISH-224; settings: acceptor; donor CMP-Neu5Ac; apparent value; pH 2.6

Molecule | Km (His6-Pd2,6ST(16–497)) [mM] | Km (Psp2,6ST(15–501)-His6) [mM] | Km [1] [mM] | kcat [1] [s⁻¹] | kcat/Km [1] [M⁻¹ s⁻¹]
CC(=O)N[C@H]1[C@@H](OC[C@H](N)C(=O)O)O[C@H](CO)[C@H](O)[C@@H]1O [compound 12, GalNAcαSer] | 1.6 ± 0.2 | 1.4 ± 0.1 |  |  | 
CC(=O)N[C@H]1[C@@H](O[C@H](C)[C@H](N)C(=O)O)O[C@H](CO)[C@H](O)[C@@H]1O [compound 13, GalNAcαThr] | 10 ± 1 | 5.9 ± 1.6 |  |  | 
GalNAcα2AA [compound 11] | 51 ± 5 | 9.5 ± 2.7 |  |  | 
Psp2,6ST(15–501)-His6 (Photobacterium sp. JT-ISH-224) (protein) CNNSEENTQSIIKNDINKTIIDEEYVNLEPINQSNISFTKHSWVQTCGTQQLLTEQNKESISLSVVAPRLDDDEKYCFDFNGVSNKGEKYITKVTLNVVAPSLEVYVDHASLPTLQQLMDIIKSEEENPTAQRYIAWGRIVPTDEQMKELNITSFALINNHTPADLVQEIVKQAQTKHRLNVKLSSNTAHSFDNLVPILKELNSFNNVTVTNIDLYDDGSAEYVNLYNWRDTLNKTDNLKIGKDYLEDVINGINEDTSNTGTSSVYNWQKLYPANYHFLRKDYLTLEPSLHELRDYIGDSLKQMQWDGFKKFNSKQQELFLSIVNFDKQKLQNEYNSSNLPNFVFTGTTVWAGNHEREYYAKQQINVINNAINESSPHYLGNSYDLFFKGHPGGGIINTLIMQNYPSMVDIPSKISFEVLMMTDMLPDAVAGIASSLYFTIPAEKIKFIVFTSTETITDRETALRSPLVQVMIKLGIVKEENVLFWA |  |  | 0.36 ± 0.07 | 1.67 ± 0.167 | 4830
